Laboratory results published in PubChem BioAssay (NCI).
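Protocol summary: plate cells (96-well), add compound at 5 concentrations, incubate 48 h, interpolate endpoints linearly. GI50 marks 50% less growth. TGI is the concentration that stops growth completely.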

Assays:
Assay in all cases: inhibition of tumour cell growth, NCI panel, 48 h
NCI-H460 lung = system: NCI-H460 lung
OVCAR-4 ovarian = system: OVCAR-4 ovarian
BT-549 breast = system: BT-549 breast
PC-3 prostate = system: PC-3 prostate
ACHN renal = system: ACHN renal
SK-MEL-5 melanoma = system: SK-MEL-5 melanoma
NCI-H23 lung = system: NCI-H23 lung
TK-10 renal = system: TK-10 renal
M19-MEL melanoma = system: M19-MEL melanoma

SMILES	GI50 (NCI-H460 lung) [µM]	TGI (NCI-H460 lung) [µM]	GI50 (OVCAR-4 ovarian) [µM]	TGI (OVCAR-4 ovarian) [µM]	GI50 (BT-549 breast) [µM]	TGI (BT-549 breast) [µM]	GI50 (PC-3 prostate) [µM]	TGI (PC-3 prostate) [µM]	GI50 (ACHN renal) [µM]	TGI (ACHN renal) [µM]	GI50 (SK-MEL-5 melanoma) [µM]	TGI (SK-MEL-5 melanoma) [µM]	GI50 (NCI-H23 lung) [µM]	TGI (NCI-H23 lung) [µM]	GI50 (TK-10 renal) [µM]	TGI (TK-10 renal) [µM]	TGI (M19-MEL melanoma) [µM]
CCCCCCCCCCC[C@@H](C[C@H]1OC(=O)[C@H]1CCCCCC)OC(=O)[C@@H](CC(C)C)NC=O	3.63	21.1	3.6	37.7	1.9	15.9	2.78	22.8	8.63	> 100	2.8	10.4	7.19	67.4	32.8	> 100	
CN1CCN(c2ccc3nc(-c4[nH]ncc4Nc4ncnc5c4OCCCN5)[nH]c3c2)CC1	0.0208	0.0804	0.0162	0.104	0.0108	0.0384	< 0.01	0.0671	0.0139	0.105	0.0204	0.0976	< 0.0109	0.0726	0.0166	0.0576	
O=C(c1nn(-c2ccc(Cl)cc2)cc1O)n1nc(C(F)(F)F)cc1-c1ccccc1	0.767	> 59.3	2.43	> 100	1.12	> 100	13.9	> 100	2.08	> 100	2.07	16.7	5.49	> 100	1.41	> 100	
CCOC(=O)Cn1c(-c2nonc2NC(=O)c2ccccc2F)nc2ccccc21	0.579	> 100	11.8	> 100	5.91	> 93.7	3.16	> 82.1	5.05	> 100	0.539	> 100	> 70.1	> 100	19.2	> 82.7	
O=C1NC(=O)[C@@H](c2c[nH]c3ccccc23)[C@@H]1c1c[nH]c2ccccc12	> 25	> 25	> 25	> 25	> 25	> 25	> 25	> 25	> 25	> 25	> 25	> 25	> 25	> 25	> 25	> 25	
COc1cc(-c2nc(-c3ccc(-c4nc5ccc(F)cc5[nH]4)cc3)no2)cc(OC)c1OC	2.97	12.5	2.82	11.3	3.49	11.1	2.33	7.59	3.72	13.6	2.22	10.2	2.5	8.35	8.27	34.1	
O=C1CCCC(O)=C1SC1=C(O)CCCC1=O				> 100								> 100		> 100		> 100	> 100
CCOC(=O)c1ccc(N(C=O)CCC(=O)CCl)cc1	0.355	11.1	0.079	3.61	0.0588	0.884	0.401	14.8	0.432	1.81	0.344	1.55	0.483	7.81	1.78	7.03	
CCCCCCCCCCCC1=NC(C)(C)CN1CC(C)O (centres undefined)	2.35	5.05	10.6	22.4	5.93	22.2	4.48	18.6	10	21.6	5.65	18.1	4.36	16	10.3	22.7	
CC[C@H]1CN(C)[C@H]2Cc3c([nH]c4ccccc34)C(=O)C[C@H]1C2C(=O)OC (some centres undefined)		> 100		> 100		> 100		> 100		> 100		> 100		> 100		> 100	
C[C@@H](Oc1cc(-n2cnc3ccc(OCC4CCN(C)CC4)cc32)sc1C(N)=O)c1ccccc1Cl	0.0846	3.04	0.477	4.81	0.397	3.58	0.136	4.42	0.368	5.04	0.0929	1.26	0.103	3.64	0.583	5.13	
NC(=O)c1sc(-n2cnc3ccc(C(F)(F)F)cc32)cc1OCc1ccccc1Br	0.946	> 15.4	3.21	> 25	3.21	> 25	2.31	> 25	5.54	> 25	0.916	6.78	1.23	> 25	7.81	> 25	
COc1ccc(C(=O)/C=C/c2cc(-c3ccc4c(c3)OCO4)n[nH]2)cc1OC	1.81	4.05	2.11	40.3	1.97	4.21	2.58	18.2	3.49	56.5	6.74	19.9	4.12	19.6	2.88	8.97	
COc1cc2cnc(-c3ccccc3)cc2cc1OC		> 100		82		68.6		77.5		73.4		27.7		56.7		67.2	
CCCCCCCCNC(C)C(O)c1ccc(SC(C)C)cc1 (centres undefined)	1.85	3.56	1.79	3.25	1.82	3.33	1.58	3.02	1.87	3.3	1.62	2.99	1.58	3.13	1.7	3.13	
Nc1nccc2c1ccn2-c1cccc(NC(=O)c2ccc(N3CCOCC3)c(C(F)(F)F)c2)c1	0.297	5.42	1.77	> 36.1	1.04	5.5	0.565	15	0.826	11.5	0.386	1.75	1.16	14.7	1.56	17.3	
